Experimental data: patent EP0339444A1, “Elaiophylin derivatives, process for their preparation and use as medicaments” (HOECHST AKTIENGESELLSCHAFT, priority 1988, dated 1989)

System: Haemunchus contortus
Assay: Anthelmintic activity in lambs artificially infected with abomasal nematodes (coproscopy up to 14 days after application, then necropsy with helminthological work-up)
Type: in vivo
Conditions: Lämmer 30 bis 40 kg
Description: Die anthelminthische Wirkung der Elaiophylinderivate wurde an Lämmern mit 30 bis 40 kg Körpergewicht untersucht. Dazu wurden die Lämmer artifiziell mit Infektionsstadien von Labmagennematoden (Haemunchus contortus) infiziert. Nach Abschluß der Entwicklungszeit (Präpatenzperiode) der Nematoden erfolgte die Applikation der Elaiophylinderivate.
Durch koproskopische Untersuchungen vor und bis zu 14 Tagen nach der Applikation der Elaiophylinderivate und anschließender Sektion mit helminthologischer Aufarbeitung wurde die prozentuale Reduktion der Schaf-Nematoden ermittelt (s. Tabelle 7). Als Vergleichssubstanz diente Elaiophylin. Zusätzlich wurde auch noch die antibakterielle Aktivität der erfindungsgemäßen Elaiophylinderivate gegen Staph. aureus und Strept. pyogenes ermittelt. Überraschenderweise zeigen die erfindungsgemäßen Verbindung keine oder nur sehr geringe antibakterielle Aktivität. Gerade deshalb eignen sich die erfindungsgemäßen Verbindungen insbesondere für den Einsatz als Anthelminthika, da hier eine antibakterielle Wirkung unerwünscht ist.

Structure (SMILES)	Reduktion v. H. contortus (%) (Dosierung 5,0 mg/kg (oral))	Reduktion v. H. contortus (%) (Dosierung 2,5 mg/kg (s.c.))
CCC1C(C)OC(O)(C(C)C(O)C(C)C2OC(=O)C3=NNCC3/C=C/C(C)C(C(C)C(O)C(C)C3(O)CC(OC4CC(OC(C)=O)C(OC(C)=O)C(C)O4)C(CC)C(C)O3)OC(=O)C3=NNCC3/C=C/C2C)CC1OC1CC(OC(C)=O)C(OC(C)=O)C(C)O1 (stereo not shown) [Verbindung 2]	40-50%	–
CCOC(=O)C1NN=C2C(=O)OC(C(C)C(O)C(C)C3(O)CC(OC4CC(O)C(O)C(C)O4)C(CC)C(C)O3)C(C)/C=C/C3C(=NNC3C(=O)OCC)C(=O)OC(C(C)C(O)C(C)C3(O)CC(OC4CC(O)C(O)C(C)O4)C(CC)C(C)O3)C(C)/C=C/C21 (stereo not shown) [Verbindung 6]	50-60%	50-60%
CCC1C(C)OC(O)(C(C)C(O)C(C)C2OC(=O)C3=NNCC3/C=C/C(C)C(C(C)C(O)C(C)C3(O)CC(OC4CC(O)C(O)C(C)O4)C(CC)C(C)O3)OC(=O)C3=NNCC3/C=C/C2C)CC1OC1CC(O)C(O)C(C)O1 (stereo not shown) [Verbindung 1]	35-45%	–
